Test results taken from patent publication US20200223889A1, “Bicyclic Compounds Capable of Binding to Melanocortin 4 Receptor” (Novo Nordisk A/S, priority 2017, published 2020).
pEC50: −log10 of the molar value. Where two headings read alike, the source gives them in different places. Positions of bridges follow the written chain, without caps; N, C: chain ends. Non-standard residues stand in square brackets, D forms with d. Residues, ends and D or L forms follow the SMILES beside them. Hyp = O=C(O)[C@@H]1C[C@@H](O)CN1; Cit = NC(=O)NCCC[C@H](N)C(=O)O; Pen = CC(C)(S)[C@H](N)C(=O)O; Orn = NCCC[C@H](N)C(=O)O; Thz = O=C(O)[C@@H]1CSCN1; Api = NC1(C(=O)O)CCNCC1; Aib = CC(C)(N)C(=O)O; Sar = CNCC(=O)O

Target: T1, human MC4R (Homo sapiens, UniProt P32245)
T1 construct: expressed in transfected cells
Assay: Functional cAMP assay (CisBio HTRF) in BHK cells expressing human MC4R
Type: cell-based
Details: for MC1R/MC4R cAMP EC50 ratio: MC1R cAMP EC50 divided by MC4R cAMP EC50
Description: In order to assess the potency of the compounds on human MC1R and human MC4R cAMP signalling was measured.
cAMP induction was measured by c-AMPdynamic2 assay, HTRF 62AM4PEC system from CisBio for the human MC1R and human MC4R according to the protocol provided by the vendor. BHK cells expressing the human MC1 or MC4 receptor were generated by stable transfection with expression vectors encoding the cDNA of either MC1R or MC4R.
In details; 25 μl compound—or standard solution were added in the respective wells. Compound was reconstituted in buffer (DMEM w/o phenol red, 10 mM
Hepes, lx Glutamine, 0.1% OV-albumin1, 1 mM IBMX) and serially diluted starting at 2 μM, 10-fold seven times. Dilutions were carried out in the same aforementioned buffer to the desired working concentration ranges (2× higher than the final concentration). 25 μl cell solution was then added and allowed to incubate for 30 min while lightly shaking, at 25° C. […] The provided components for the assay were reconstituted according to the CisBio assay protocol “3.1 supplied reagents and preparation procedure” in MilliQ purification system H2O and diluted 1:20 in lysis buffer. 25 μl cAMP-d2 and 25 μl Cryptate conjugate were added to all wells.
Plates were centrifuged at 1500 rpm for 30 sec and incubated for 1 h, lightly shaking, at 25° C. in a hotel stacker. The plates were read on Mithras LB 940 provided by Berthold Technologies The data were analysed by non-linear regression analysis of binding curves, using the Windows™ program GraphPad™ Prism (GraphPad Software, USA).
The latter is used when no full curve can be obtained in the concentration ranges indicated above.

[1] = BHK cells expressing human MC4R, '>' = highest dose used with no response, read-out: MC4R cAMP EC50

T1 sequence (P32245 whole entry): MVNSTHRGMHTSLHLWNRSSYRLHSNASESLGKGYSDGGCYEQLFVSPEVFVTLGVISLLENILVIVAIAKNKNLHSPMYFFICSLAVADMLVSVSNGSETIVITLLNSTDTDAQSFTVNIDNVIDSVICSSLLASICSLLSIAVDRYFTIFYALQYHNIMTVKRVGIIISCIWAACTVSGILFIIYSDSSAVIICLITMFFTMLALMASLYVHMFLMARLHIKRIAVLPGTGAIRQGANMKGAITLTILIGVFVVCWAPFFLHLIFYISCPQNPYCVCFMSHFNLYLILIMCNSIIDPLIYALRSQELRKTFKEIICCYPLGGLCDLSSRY

| Compound | pEC50 [1] | MC1R/MC4R cAMP EC50 ratio | pEC50 |
| --- | --- | --- | --- |
| CN1CC(=O)N[C@@H](Cc2c[nH]cn2)C(=O)N[C@H](Cc2ccccc2)C(=O)N[C@@H](CCCNC(=N)N)C(=O)N[C@@H](Cc2c[nH]c3ccccc23)C(=O)N[C@H]2CSSC[C@H](NC(=O)[C@H](Cc3c[nH]c4ccccc34)NC(=O)[C@H](CCCNC(=N)N)NC(=O)[C@@H](Cc3ccccc3)NC(=O)[C@H](Cc3c[nH]cn3)NC(=O)CN(C)C2=O)C1=O [Chem. 31, c[c[Cys-Sar-His-D-Phe-Arg-Trp-Cys]- Sar-His-D-Phe-Arg-Trp]] (cyclo(C[Sar]H[dF]RWC[Sar]H[dF]RW); disulfide 1-7) | 9.54 | 27 | – |
| N=C(N)NCCC[C@@H]1NC(=O)[C@@H](Cc2ccccc2)NC(=O)[C@H](Cc2c[nH]cn2)NC(=O)[C@@H]2C[C@@H](O)CN2C(=O)[C@@H]2CSSC[C@H](NC(=O)[C@H](Cc3c[nH]c4ccccc34)NC1=O)C(=O)N1C[C@H](O)C[C@H]1C(=O)N[C@@H](Cc1c[nH]cn1)C(=O)N[C@H](Cc1ccccc1)C(=O)N[C@@H](CCCNC(=N)N)C(=O)N[C@@H](Cc1c[nH]c3ccccc13)C(=O)N2 [Chem. 32, c[c[Cys-Hyp-His-D-Phe-Arg-Trp- Cys]-Hyp-His-D-Phe-Arg-Trp]] (cyclo(C[Hyp]H[dF]RWC[Hyp]H[dF]RW); disulfide 1-7) | – | 17 | 9.92 |
| C[C@@H]1NC(=O)[C@@H]2CSSC[C@H](NC(=O)[C@H](Cc3c[nH]c4ccccc34)NC(=O)[C@H](CCCNC(=N)N)N(C)C(=O)[C@@H](Cc3ccccc3)NC(=O)[C@H](Cc3c[nH]cn3)NC1=O)C(=O)N[C@@H](C)C(=O)N[C@@H](Cc1c[nH]cn1)C(=O)N[C@H](Cc1ccccc1)C(=O)N(C)[C@@H](CCCNC(=N)N)C(=O)N[C@@H](Cc1c[nH]c3ccccc13)C(=O)N2 [Chem. 37, c[c[Cys-Ala-His-D-Phe-N-MeArg-Trp- Cys]-Ala-His-D-Phe-N-MeArg-Trp]] | – | 8 | – |
| CC1(C)NC(=O)[C@@H]2CSSC[C@H](NC(=O)[C@H](Cc3c[nH]c4ccccc34)NC(=O)[C@H](CCCNC(=N)N)NC(=O)[C@@H](Cc3ccccc3)NC(=O)[C@@H]3CCCN3C1=O)C(=O)NC(C)(C)C(=O)N1CCC[C@H]1C(=O)N[C@H](Cc1ccccc1)C(=O)N[C@@H](CCCNC(=N)N)C(=O)N[C@@H](Cc1c[nH]c3ccccc13)C(=O)N2 [Chem. 39, c[c[Cys-Aib-Pro-D-Phe-Arg-Trp-Cys]- Aib-Pro-D-Phe-Arg-Trp]] (cyclo([Aib]P[dF]RWC[Aib]P[dF]RWC); disulfide 6-12) | – | 37 | – |
| O=C1N[C@H]2CSSC[C@H](NC(=O)[C@H](Cc3c[nH]c4ccccc34)NC(=O)[C@H](Cc3c[nH]cn3)NC(=O)[C@@H](Cc3ccccc3)NC(=O)[C@H](Cc3c[nH]cn3)NC(=O)C3(CCNCC3)NC2=O)C(=O)NC2(CCNCC2)C(=O)N[C@@H](Cc2c[nH]cn2)C(=O)N[C@H](Cc2ccccc2)C(=O)N[C@@H](Cc2c[nH]cn2)C(=O)N[C@H]1Cc1c[nH]c2ccccc12 [Chem. 50, c[c[Cys-ACP-His-D-Phe-His-Trp-Cys]- ACP-His-D-Phe-His-Trp]] (cyclo([Api]H[dF]HWC[Api]H[dF]HWC); disulfide 6-12) | – | 56 | – |
| N=C(N)NCCC[C@@H]1NC(=O)[C@@H](Cc2ccccc2)NC(=O)[C@H](Cc2c[nH]cn2)NC(=O)[C@H](CCC(=O)O)NC(=O)[C@@H]2CSSC[C@H](NC(=O)[C@H](Cc3c[nH]c4ccccc34)NC1=O)C(=O)N[C@@H](CCC(=O)O)C(=O)N[C@@H](Cc1c[nH]cn1)C(=O)N[C@H](Cc1ccccc1)C(=O)N[C@@H](CCCNC(=N)N)C(=O)N[C@@H](Cc1c[nH]c3ccccc13)C(=O)N2 [Chem. 51, c[c[Cys-Glu-His-D-Phe-Arg-Trp-Cys]- Glu-His-D-Phe-Arg-Trp]] (cyclo(CEH[dF]RWCEH[dF]RW); disulfide 1-7) | 9.70 | 13 | – |
| NCCCC[C@@H]1NC(=O)[C@@H]2CSSC[C@H](NC(=O)[C@H](Cc3c[nH]c4ccccc34)NC(=O)[C@H](CCCNC(N)=O)NC(=O)[C@@H](Cc3ccccc3)NC(=O)[C@H](Cc3c[nH]cn3)NC1=O)C(=O)N[C@@H](CCCCN)C(=O)N[C@@H](Cc1c[nH]cn1)C(=O)N[C@H](Cc1ccccc1)C(=O)N[C@@H](CCCNC(N)=O)C(=O)N[C@@H](Cc1c[nH]c3ccccc13)C(=O)N2 [Chem. 55, c[c[Cys-Lys-His-D-Phe-Cit-Trp-Cys]- Lys-His-D-Phe-Cit-Trp]] (cyclo(CKH[dF][Cit]WCKH[dF][Cit]W); disulfide 1-7) | 10.00 | 41 | – |
| N=C(N)NCCC[C@@H]1NC(=O)[C@H](Cc2c[nH]c3ccccc23)NC(=O)[C@H](CCCNC(=N)N)NC(=O)[C@@H](Cc2ccccc2)NC(=O)[C@H](Cc2c[nH]cn2)NC(=O)[C@@H]2CSSC[C@H](NC1=O)C(=O)N[C@@H](Cc1c[nH]cn1)C(=O)N[C@H](Cc1ccccc1)C(=O)N[C@@H](CCCNC(=N)N)C(=O)N[C@@H](Cc1c[nH]c3ccccc13)C(=O)N[C@@H](CCCNC(=N)N)C(=O)N2 [Chem. 68, c[c[Cys-His-D-Phe-Arg-Trp-Arg-Cys]- His-D-Phe-Arg-Trp-Arg]] (cyclo(CH[dF]RWRCH[dF]RWR); disulfide 1-7) | – | 1 | – |
| C[C@@H]1NC(=O)[C@@H]2CSSC[C@H](NC(=O)[C@H](CCCNC(=N)N)NC(=O)[C@H](Cc3c[nH]c4ccccc34)NC(=O)[C@H](CCCNC(=N)N)NC(=O)[C@@H](Cc3ccccc3)NC(=O)[C@H](Cc3c[nH]cn3)NC1=O)C(=O)N[C@@H](C)C(=O)N[C@@H](Cc1c[nH]cn1)C(=O)N[C@H](Cc1ccccc1)C(=O)N[C@@H](CCCNC(=N)N)C(=O)N[C@@H](Cc1c[nH]c3ccccc13)C(=O)N[C@@H](CCCNC(=N)N)C(=O)N2 [Chem. 69, c[c[Cys-Ala-His-D-Phe-Arg-Trp-Arg- Cys]-Ala-His-D-Phe-Arg-Trp-Arg]] (cyclo(AH[dF]RWRCAH[dF]RWRC); disulfide 7-14) | – | 5 | – |
| C[C@@H]1NC(=O)[C@@H]2CSSC[C@H](NC(=O)[C@H](CCCNC(=N)N)NC(=O)[C@H](CCCNC(=N)N)NC(=O)[C@H](CCC(=O)O)NC(=O)[C@H](CCCNC(=N)N)NC1=O)C(=O)N1CSC[C@H]1C(=O)N[C@@H](Cc1c[nH]cn1)C(=O)N[C@H](Cc1ccccc1)C(=O)N[C@@H](Cc1c[nH]cn1)C(=O)N[C@@H](Cc1c[nH]c3ccccc13)C(=O)N2 [Chem. 113, c[c[Cys-THAZ-His-D-Phe-His-Trp- Cys]-Ala-Arg-Glu-Arg-Arg]] (cyclo(ARERRC[Thz]H[dF]HWC); disulfide 6-12) | – | 2112 | 10.70 |
| C[C@@H]1NC(=O)[C@H](C)NC(=O)[C@H](CCCN)NC(=O)[C@H](CCCCN)NC(=O)[C@@H]2CSSC[C@H](NC(=O)[C@H](Cc3c[nH]c4ccccc34)NC1=O)C(=O)N1CSC[C@H]1C(=O)N[C@@H](Cc1c[nH]cn1)C(=O)N[C@H](Cc1ccccc1)C(=O)N[C@@H](Cc1c[nH]cn1)C(=O)N[C@@H](Cc1c[nH]c3ccccc13)C(=O)N2 [Chem. 115, c[c[Cys-THAZ-His-D-Phe-His-Trp-C ys]-Lys-Orn-Ala-Ala-Trp]] (cyclo(AAWC[Thz]H[dF]HWCK[Orn]); disulfide 4-10) | – | 1340 | 10.00 |
| C[C@@H]1NC(=O)[C@H](C)NC(=O)[C@H](CCCN)NC(=O)[C@H](CCCN)NC(=O)[C@@H]2CSSC[C@H](NC(=O)[C@H](Cc3c[nH]c4ccccc34)NC1=O)C(=O)N1CSC[C@H]1C(=O)N[C@@H](Cc1c[nH]cn1)C(=O)N[C@H](Cc1ccccc1)C(=O)N[C@@H](Cc1c[nH]cn1)C(=O)N[C@@H](Cc1c[nH]c3ccccc13)C(=O)N2 [Chem. 116, c[c[Cys-THAZ-His-D-Phe-His-Trp- Cys]-Orn-Orn-Ala-Ala-Trp]] (cyclo(AAWC[Thz]H[dF]HWC[Orn][Orn]); disulfide 4-10) | – | 1927 | 9.92 |
| C[C@@H]1NC(=O)[C@H](C)NC(=O)[C@H](CCCCN)NC(=O)[C@H](CCCCN)NC(=O)[C@H]2NC(=O)[C@H](Cc3c[nH]c4ccccc34)NC(=O)[C@H](Cc3c[nH]cn3)NC(=O)[C@@H](Cc3ccccc3)NC(=O)[C@H](Cc3c[nH]cn3)NC(=O)[C@@H]3CSCN3C(=O)[C@H](CSSC2(C)C)NC(=O)[C@H](Cc2c[nH]c3ccccc23)NC1=O [Chem. 117, c[c[Cys-THAZ-His-D-Phe-His-Trp- Pen]-Lys-Lys-Ala-Ala-Trp]] (cyclo(AAWC[Thz]H[dF]HW[Pen]KK); disulfide 4-10) | – | 841 | 9.70 |
| N=C(N)NCCC[C@@H]1NC(=O)[C@H](CCCCN)NC(=O)[C@@H]2CSSC[C@H](NC1=O)C(=O)N1CSC[C@H]1C(=O)N[C@@H](Cc1c[nH]cn1)C(=O)N[C@H](Cc1ccccc1)C(=O)N[C@@H](Cc1c[nH]cn1)C(=O)N[C@@H](Cc1c[nH]c3ccccc13)C(=O)N2 [Chem. 118, c[c[Cys-THAZ-His-D-Phe-His-Trp- Cys]-Lys-Arg]] (cyclo(CKRC[Thz]H[dF]HW); disulfide 1-4) | – | 1240 | – |
